Patent publication US8673578B2, “Methods of identifying antagonists of the hTAS2R46 bitter taste receptor” (Deutsches Institut für Ernahrungsforschung Potsdam-Rehbrücke, priority 2009, dated 2014)

What was measured:
Assay in all cases: calcium imaging (FLIPR), effect on agonist-dependent hTAS2R activation
hTAS2R46 = target: T1, hTAS2R46 (Homo sapiens, UniProt P59540); format: cell-based; conditions: for agonist-dependent response of hTAS2R46-expressing cells on coapplication: 100 μM test substance, agonist picrotoxinin 300 μM (EC90), agonist alone = 100%
T1 construct: expressed in transfected cells; host or cells: HEK293T cells stably expressing chimeric Gα16gust44, transient transfection
T1 sequence (P59540 1-309): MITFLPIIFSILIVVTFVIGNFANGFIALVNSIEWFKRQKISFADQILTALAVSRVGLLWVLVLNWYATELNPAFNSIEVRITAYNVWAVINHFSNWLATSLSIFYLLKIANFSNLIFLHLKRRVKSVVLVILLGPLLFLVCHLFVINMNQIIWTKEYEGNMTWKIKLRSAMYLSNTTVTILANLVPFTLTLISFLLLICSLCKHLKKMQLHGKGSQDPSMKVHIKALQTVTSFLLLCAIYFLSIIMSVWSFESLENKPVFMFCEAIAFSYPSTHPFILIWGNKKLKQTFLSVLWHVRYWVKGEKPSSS
Excerpt: (§1) Human TAS2R cDNAs were cloned into pcDNA5/FRT (Invitrogen, San Diego, Calif.). For adequate plasma membrane targeting, receptor cDNA was fused to the aminoterminal sequence of the rat somatostatin type 3 receptor at the aminoterminus of the recombinant protein (Bufe, B., T. Hofmann, et al. (2002) Nat Genet. 32(3): 397-401). For immunological detection, the Herpes simplex Glycoprotein D epitope was supplemented at the carboxyterminus of the recombinant protein (Bufe et al., supra). Receptor constructs were transiently transfected into HEK293T cells stably expressing the chimeric G protein subunit Gα16gust44 (Ueda, T., S. Ugawa, et al. (2003) J Neurosci 23(19): 7376-80) using Lipofectamine 2000 (Invitrogen, San Diego, Calif.) in 96-well plates.
(§2) Calcium Imaging experiments were performed 24 h after transfection using a Fluorometric Imaging Plate Reader (FLIPR, Molecular Devices, Munich, Germany) as previously described (Bufe et al., supra). Taste active compounds were ordered from Sigma (Sigma-Aldrich, Taufkirchen, Germany). Absinthin, 3β hydroxy dihydro costunolide and 3β hydroxy pelenolide were kindly provided by Giovanni Appendino (Novara, Italy). Test substances were directly dissolved in C1 buffer (130 mM NaCl, 10 mM Na-Hepes, 10 mM Glucose, 5 mM KCl, 2 mM CaCl2, pH 7.4) or in DMSO, respectively. DMSO stocks were further diluted in C1 buffer not exceeding a final DMSO concentration of 1% on the cells. For the investigation of antagonistic effects, test substances were premixed. Agonists were applied at concentrations corresponding to EC90, except where indicated otherwise (Table 2). Data were collected from 3 independent experiments performed in quadruplicates and processed with SigmaPlot (SPSS, Chicago, Ill.). Fluorescence signals after application of test substances were corrected for and normalized to background fluorescence (ΔF/F═(F−F0)/F0), and baseline noise was subtracted. Calculation of dose-response curves was done by nonlinear regression using the function f(y)=((a−d)/(1+(x/EC50)^nH)+d).
(§3) To test 3β hydroxy dihydro costunolide and 3β hydroxy pelenolide for antagonistic or enhancing effects on hTAS2R activation, transfected cells were stimulated with cognate agonist bitter substances at EC90 concentrations (Table 2) without 3β hydroxy dihydro costunolide and 3β hydroxy pelenolide. The cellular responses after application of the agonist alone were set to 100%, responses obtained after coapplication of agonists and 100 μM 3β hydroxy dihydro costunolide or 100 μM 3β hydroxy pelenolide are shown relative to this value (FIG. 4).
Next we determined concentrations of half-maximal inhibition of TAS2R46. FIG. 5 illustrates the concentration-inhibition curves of TAS2R46 activated by picrotoxinin in the presence of various concentrations of 3β hydroxy dihydro costunolide or 3β hydroxy pelenolide. […] In agreement with the data described above the costunolide analog appears to be more potently inhibiting TAS2R46 than the pelenolide analog. […] As expected 3β hydroxy pelenolide has to be employed at ˜6 fold higher concentrations than 3β hydroxy dihydro costunolide to achieve 50% receptor inhibition.
Next, we established concentration-response curves for strychnine at TAS2R46 in the presence of various concentrations of 3β hydroxy dihydro costunolide.
Finally, the impact of chemical modifications on the antagonistic properties of 3β hydroxy dihydro costunolide on hTAS2R46-expressing cells was studied. Derivatives of 3β hydroxy dihydro costunolide with site-directed modifications at C3 and C11 were generated (FIG. 7A) These derivatives were tested for activation or inhibition of hTAS2R46-expressing cells in the absence or presence of the agonist strychnine (3 μM) and half-maximum effective concentrations (EC50) or half-maximal inhibitory concentrations were calculated (FIG. 7B).

hTAS2R43 = target: T2, hTAS2R43 (Homo sapiens, UniProt P59537, H212R/W35S); format: cell-based; conditions: 100 μM test substance; agonist aristolochic acids 0.3 μM (EC90); agonist alone = 100%
T2 construct: expressed in transfected cells; host or cells: HEK293T cells stably expressing chimeric Gα16gust44, transient transfection
T2 sequence (P59537 1-309 W35S/H212R): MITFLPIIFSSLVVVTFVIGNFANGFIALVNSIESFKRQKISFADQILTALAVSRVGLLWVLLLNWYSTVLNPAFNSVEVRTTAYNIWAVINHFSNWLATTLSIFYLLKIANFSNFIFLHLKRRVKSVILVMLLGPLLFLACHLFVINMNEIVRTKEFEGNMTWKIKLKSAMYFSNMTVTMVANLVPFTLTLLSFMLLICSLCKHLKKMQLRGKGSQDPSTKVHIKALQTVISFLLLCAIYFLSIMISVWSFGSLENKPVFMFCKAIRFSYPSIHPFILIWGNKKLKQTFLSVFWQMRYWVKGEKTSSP
Excerpt: as §1, §2, §3

hTAS2R47 = target: T3, hTAS2R47 (Homo sapiens, UniProt P59541); format: cell-based; conditions: 100 μM test substance; agonist brucine 100 μM (EC90); agonist alone = 100%
T3 construct: expressed in transfected cells; host or cells: HEK293T cells stably expressing chimeric Gα16gust44, transient transfection
T3 sequence (P59541 1-319): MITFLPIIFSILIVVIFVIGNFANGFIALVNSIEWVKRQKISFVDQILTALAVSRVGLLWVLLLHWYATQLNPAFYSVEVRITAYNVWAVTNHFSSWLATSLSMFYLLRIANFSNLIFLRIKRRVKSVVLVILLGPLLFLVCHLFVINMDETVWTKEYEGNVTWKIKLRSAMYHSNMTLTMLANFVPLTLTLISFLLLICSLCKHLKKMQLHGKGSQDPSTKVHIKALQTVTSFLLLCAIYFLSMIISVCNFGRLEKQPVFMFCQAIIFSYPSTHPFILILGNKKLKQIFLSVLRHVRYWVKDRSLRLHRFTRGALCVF
Excerpt: as §1, §2, §3

hTAS2R40 = target: T4, hTAS2R40 (Homo sapiens, UniProt P59535); format: cell-based; conditions: 100 μM test substance; agonist cohumulone 0.3 μM (EC90); agonist alone = 100%
T4 construct: expressed in transfected cells; host or cells: HEK293T cells stably expressing chimeric Gα16gust44, transient transfection
T4 sequence (P59535 whole entry): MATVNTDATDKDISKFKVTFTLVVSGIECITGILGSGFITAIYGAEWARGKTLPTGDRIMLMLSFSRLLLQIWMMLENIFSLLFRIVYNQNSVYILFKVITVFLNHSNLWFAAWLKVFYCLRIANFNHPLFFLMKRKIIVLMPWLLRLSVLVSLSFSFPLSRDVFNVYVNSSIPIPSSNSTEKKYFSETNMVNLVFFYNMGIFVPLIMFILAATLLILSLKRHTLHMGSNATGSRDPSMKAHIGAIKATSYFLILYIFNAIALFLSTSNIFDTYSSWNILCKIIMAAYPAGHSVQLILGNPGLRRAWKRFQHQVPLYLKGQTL
Excerpt: as §1, §2, §3

other hTAS2 receptors = format: cell-based, human; conditions: 100 μM test substance; cognate agonists of Table 2
Excerpt: as §1
Calcium Imaging experiments were performed 24 h after transfection using a Fluorometric Imaging Plate Reader (FLIPR, Molecular Devices, Munich, Germany) as previously described (Bufe et al., supra). Taste active compounds were ordered from Sigma (Sigma-Aldrich, Taufkirchen, Germany). Absinthin, 3β hydroxy dihydro costunolide and 3β hydroxy pelenolide were kindly provided by Giovanni Appendino (Novara, Italy). […] Fluorescence signals after application of test substances were corrected for and normalized to background fluorescence (ΔF/F═(F−F0)/F0), and baseline noise was subtracted. […]

[1] = agonist denatonium benzoate 300 μM

Row | SMILES | agonist-dependent response of hTAS2R46-expressing cells on coapplication (hTAS2R46) | fold higher concentration than 3β hydroxy dihydro costunolide to achieve 50% receptor inhibition (hTAS2R46; TAS2R46) | IC50 (hTAS2R46; agonist absinthin 100 μM) | IC50 (hTAS2R46; agonist andrographolide 30 μM) | IC50 (hTAS2R46; [1]) | IC50 (hTAS2R46; agonist picrotoxinin 300 μM) | IC50 (hTAS2R46; agonist strychnine 3 μM) | agonist-dependent response of hTAS2R43-expressing cells on coapplication (hTAS2R43) | agonist-dependent response of hTAS2R47-expressing cells on coapplication (hTAS2R47) | agonist-dependent response of hTAS2R40-expressing cells on coapplication (hTAS2R40) | agonist activation of cells expressing any of the other hTAS2Rs on coapplication (other hTAS2 receptors) | strychnine response amplitude at TAS2R46 with increasing inhibitor concentrations (hTAS2R46; 0, 10, 30, 100 μM inhibitor) | change of the strychnine EC50 value at hTAS2R46 on coapplication (hTAS2R46; 100 μM inhibitor, P<0.05, one-way ANOVA) | action on hTAS2R46-expressing cells (inhibition) (hTAS2R46; presence of agonist strychnine 3 μM) | mode of action of the inhibitor at TAS2R46 (hTAS2R46; strychnine concentration-response curves with 0, 10, 30, 100 μM inhibitor)
1 | C/C1=C\C[C@H](O)[C@@H](C)C[C@H]2OC(=O)[C@@H](C)[C@@H]2CC1 [3β hydroxy pelenolide] | moderately attenuating effect | ~6 fold | 57.8 ± 24.9 µM | 44.5 ± 34.5 µM | 51.4 ± 28.8 µM | 22.9 ± 3.4 µM | 84.9 ± 50.2 µM | completely inhibited | completely inhibited | moderately attenuating effect | not affected | – | – | – | –
2 | C/C1=C\C[C@H](O)/C(C)=C/[C@H]2OC(=O)[C@@H](C)C2CC1 (stereo partly drawn) [3β hydroxy dihydro costunolide] | complete block | – | 14.1 ± 1.35 µM | 4.93 ± 0.54 µM | 6.78 ± 2.33 µM | 4.81 ± 1.43 µM | 15.3 ± 5.85 µM | only moderately reduced | complete block | only moderately reduced | did not alter | largely unaffected | significant increase | antagonists | competitive
